This is an account of results in ChEMBL document CHEMBL4229459, “An efficient synthetic route for preparation of antimycobacterial wollamides and evaluation of their in vitro and in vivo efficacy” (Bioorg Med Chem Lett, 2018).

Converted amounts (≈) assume the structure as drawn. Residues, ends and D or L forms follow the SMILES beside them.

The subject of series [1] is Mycobacterium tuberculosis. Description: Antimycobacterial activity against Mycobacterium tuberculosis H37Rv incubated for 6 days under shaking condition by resazurin dye based fluorescence assay. The following applies: 144 h. It is filed as functional.
Series [2] in a line: Intrinsic clearance in human liver microsomes. In kind it is ADME, microsome.
The nature of series [3]: Kinetic aqueous solubility of the compound by charged aerosol detection method. It is filed as physicochemical. The following applies: buffer; read-out: Kinetic_solubility.
The nature of series [4]: Intrinsic clearance in mouse liver microsomes. It is filed as ADME, microsome.
The next series relates to HepG2. Nature of the series: Cytotoxicity against human HepG2 cells after 48 hrs by CellTiter-Glo luminescence assay. In kind it is cell-based. The following applies: HepG2, 48 h.
Series [5] is described as follows: Permeability of the compound by PAMPA. The following applies: read-out: permeability. In kind it is ADME.
The subject of series [6] is Mycobacterium tuberculosis. Nature of the series: Antimycobacterial activity against Mycobacterium tuberculosis H37Rv infected in C57BL/6J mouse assessed as log10 CFU reduction in bacterial lung count at 30 mg/kg, po administered once daily for 8 days measured post last dose relative to control. In kind it is functional.
Series [7] can be described thus: Kinetic aqueous solubility of the compound by CLND method. It is filed as physicochemical. The following applies: buffer; read-out: Kinetic_solubility.
Series [8] has as its system Mycobacterium tuberculosis. Description: Antimycobacterial activity against Mycobacterium tuberculosis H37Rv infected in human THP1 cells treated prior to infection measured after 4 days by luciferase reporter gene assay. It is filed as functional, organism-based. The following applies: THP-1, 96 h.
Series [9] has as its system Mus musculus. Nature of the series: Dose normalized AUC (0 to 6 hrs) in C57BL/6J mouse at 5 mg/kg, ip. In kind it is ADME, organism-based. The following applies: in vivo.
The nature of series [10]: Kinetic aqueous solubility of the compound at pH 7.4 phosphate buffered saline after 1 hr by CLND method. It is filed as physicochemical. The following applies: read-out: Kinetic_solubility.
In series [11] the test system is Mus musculus. Description: Dose normalized AUC (0 to 6 hrs) in C57BL/6J mouse at 25 mg/kg, ip. It is filed as ADME, organism-based. The following applies: in vivo.
Series [12] is described as follows: Cmax in C57BL/6J mouse at 5 mg/kg, ip. It is filed as ADME, organism-based. Details: dose 5 mg/kg, route intraperitoneal. The following applies: in vivo.
Series [13] in a line: AUC (0 to 6 hrs) in C57BL/6J mouse at 5 mg/kg, ip. Details: dose 5 mg/kg, time < 6 hr, route intraperitoneal. It is filed as ADME, organism-based. The following applies: in vivo.
Series [14] can be described thus: Cmax in C57BL/6J mouse at 25 mg/kg, ip. The arrangement: dose 25 mg/kg, route intraperitoneal. The following applies: in vivo. It is filed as ADME, organism-based.
A short description of series [15]: AUC (0 to 6 hrs) in C57BL/6J mouse at 25 mg/kg, ip. In kind it is ADME, organism-based. Details: dose 25 mg/kg, time < 6 hr, route intraperitoneal. The following applies: in vivo.
The nature of series [16]: Intrinsic clearance in mouse liver microsomes at […] pretreated for 45 mins followed by NADPH addition by LC-MS/MS analysis. It is filed as ADME, microsome.
Series [17] can be described thus: Intrinsic clearance in human liver microsomes at […] pretreated for 45 mins followed by NADPH addition by LC-MS/MS analysis. It is filed as ADME, microsome.
Series [18] relates to Mus musculus. Nature of the series: Toxicity in C57BL/6J mouse assessed as body weight loss at 25 mg/kg, ip after 24 hrs by Irwin test. The following applies: in vivo. It is filed as organism-based.
For series [19], the system named is Mycobacterium tuberculosis. Description: Antimycobacterial activity against Mycobacterium tuberculosis H37Rv infected in C57BL/6J mouse assessed as log10 CFU reduction in bacterial lung count at 5 mg/kg, ip administered once daily for 8 days measured post last dose relative to control. It is filed as functional.
The test system of series [20] is Mus musculus. Description: Toxicity in C57BL/6J mouse assessed as behavioral changes at 5 to 25 mg/kg, ip by Irwin test. In kind it is organism-based. The following applies: in vivo.
Series [21] is described as follows: Permeability of the compound at pH 7.4 at […] incubated for 3 hrs under shaking condition by HPLC method. It is filed as ADME. The following applies: not told, read-out: permeability.

`CC(C)C[C@@H]1NC(=O)[C@H](Cc2c[nH]c3ccccc23)NC(=O)[C@@H](CCCN)NC(=O)[C@H](CC(=O)NCc2ccccc2)NC(=O)[C@H](C(C)C)NC(=O)[C@@H](CC(C)C)NC1=O` had an MIC in series [1] of 10 µM (≈ 8.3 µg/mL). Besides, the CLH in series [2] was found to be 0.88 mL/min/g; in [4], 0.73 mL/min/g. In addition, the solubility kinetic in [3] was greater than 353 µM. In addition, in the series with HepG2, the IC50 was 39.8 µM. The Papp in series [5] was less than 1 ×10⁻⁶ cm/s.

In the case of `COc1c(N2C[C@@H]3CCCN[C@@H]3C2)c(F)cc2c(=O)c(C(=O)O)cn(C3CC3)c12` [MOXIFLOXACIN], in series [6], the FC turned out to be 3.4.

In turn, `CC[C@@H](C)[C@@H]1NC(=O)[C@@H](CC(C)C)NC(=O)[C@H](CC(C)C)NC(=O)[C@H](Cc2c[nH]c3ccccc23)NC(=O)[C@@H](CCCN)NC(=O)[C@H](CC(N)=O)NC1=O` came in with an MIC in series [1] of 1.1 µM (≈ 0.829 µg/mL). In [7], the solubility kinetic turned out to be 177 µM (≈ 133 µg/mL). The CLH in [2] is 0.87 mL/min/g; in [4], less than 0.48 mL/min/g. Also, the IC50 in the series with HepG2 was 50.1 µM; in [8] it was 0.8 µM. Also, the Papp in [5] is less than 1 ×10⁻⁶ cm/s.

With `CC[C@H](C)[C@@H]1NC(=O)[C@@H](CC(C)C)NC(=O)[C@H](CC(C)C)NC(=O)[C@H](Cc2c[nH]c3ccccc23)NC(=O)[C@@H](CCCNC(=N)N)NC(=O)[C@H](CC(N)=O)NC1=O` (HELM PEPTIDE1{I.N.[dR].W.L.[dL]}$PEPTIDE1,PEPTIDE1,1:R1-6:R2$$$V2.0), in [1], the minimum inhibitory concentration (MIC) was 0.6 µM (≈ 0.478 µg/mL). The AUC/dose came to 1258.6 ng·h/mL/mg/kg with Mus musculus [9] and 586.1 ng·h/mL/mg/kg with Mus musculus [11]. The solubility kinetic at 1 h in series [10] is greater than 238 µM. For the same compound, the Cmax was determined as 1470 ng/mL in series [12] and 3260 ng/mL in series [14]. Moreover, the figures for the AUC(0-t) at 6 h in series [13] and in [15] were 6290 ng·h/mL and 14700 ng·h/mL, respectively. In addition, the results for the IC50 (in the series on HepG2; in series [8]) were 50.1 µM and 0.2 µM, respectively. The figures for the CLH in series [16] and in series [17] were 1.01 mL/min/g and 7.44 mL/min/g, respectively. In addition, the Activity in the series on Mus musculus [18] is reported as 10%; in the series with Mus musculus [20], “Non-Toxic”. Moreover, the FC in series [19] is reported as -0.2.

Compound `CC(C)C[C@@H]1NC(=O)[C@H](Cc2c[nH]c3ccccc23)NC(=O)[C@@H](CCCN)NC(=O)[C@H](CC(=O)NC2CCCCC2)NC(=O)[C@H](C(C)C)NC(=O)[C@@H](CC(C)C)NC1=O` came in with an MIC in series [1] of 5 µM (≈ 4.11 µg/mL). In the series on HepG2, this compound gave an IC50 of 50.1 µM.

In series [1], `CC(C)C[C@@H]1NC(=O)[C@H](Cc2c[nH]c3ccccc23)NC(=O)[C@@H](CCCN)NC(=O)[C@H](CC(=O)N2CCC(Oc3ccc(OC(F)(F)F)cc3)CC2)NC(=O)[C@H](C(C)C)NC(=O)[C@@H](CC(C)C)NC1=O` gave an MIC greater than 80 µM. Also, the solubility kinetic at 1 h in series [10] is 20 µM (≈ 19.7 µg/mL). Also, the CLH is 0.4 mL/min/g in series [2] and less than 0.48 mL/min/g in series [4]. Moreover, half-maximal inhibition in the series on HepG2 (IC50) required 31.6 µM. For the same compound, the Papp in series [5] is 8.7 ×10⁻⁶ cm/s.

In the case of `CC(C)C[C@@H]1NC(=O)[C@H](Cc2c[nH]c3ccccc23)NC(=O)[C@@H](CCCN)NC(=O)[C@H](CC(=O)N2CCCCC2)NC(=O)[C@H](C(C)C)NC(=O)[C@@H](CC(C)C)NC1=O`, the MIC in series [1] worked out at 20 µM (≈ 16.2 µg/mL). Moreover, the values for the CLH in series [2] and in [4] were 1.9 mL/min/g and less than 0.48 mL/min/g, respectively. Also, the solubility kinetic in [3] is 107 µM (≈ 86.5 µg/mL). Also, the 50% inhibitory concentration (IC50) in the series with HepG2 was greater than 100 µM. The Papp in series [5] is less than 1 ×10⁻⁶ cm/s.

Consider `CC[C@H](C)[C@@H]1NC(=O)[C@@H](CC(C)C)NC(=O)[C@H](CC(C)C)NC(=O)[C@H](Cc2c[nH]c3ccccc23)NC(=O)[C@@H](CCCN)NC(=O)[C@H](CC(N)=O)NC1=O`, for which, in [1], inhibition of growth (MIC) required 1.1 µM (≈ 0.829 µg/mL). Further, the AUC/dose with Mus musculus [9] is 957 ng·h/mL/mg/kg; in the series on Mus musculus [11], 1063.8 ng·h/mL/mg/kg. The solubility kinetic at 1 h in series [10] is greater than 235 µM. For the same compound, the Papp at 3 h in series [21] was less than 1 ×10⁻⁶ cm/s. The Cmax in series [12] amounted to 2170 ng/mL; in series [14], 6330 ng/mL. In addition, the AUC(0-t) at 6 h stood at 4780 ng·h/mL in series [13] and 26600 ng·h/mL in series [15]. Further, the CLH in series [4] is less than 0.48 mL/min/g; in [17] it was 1.87 mL/min/g. The IC50 with HepG2 is 50.1 µM; in series [8] it was 0.8 µM. The figures for the Activity in the series on Mus musculus [18] and in the series with Mus musculus [20] were 10% and “Non-Toxic”, respectively. In addition, in series [19], the FC is on record as -0.2.

In [1], `CCCCNC(=O)C[C@@H]1NC(=O)[C@H](C(C)C)NC(=O)[C@@H](CC(C)C)NC(=O)[C@H](CC(C)C)NC(=O)[C@H](Cc2c[nH]c3ccccc23)NC(=O)[C@@H](CCCN)NC1=O` returned an MIC of 10 µM (≈ 7.96 µg/mL). The CLH in [2] amounted to 1.69 mL/min/g; in series [4] it was 1.19 mL/min/g. Moreover, in [3], the solubility kinetic worked out at 146 µM (≈ 116 µg/mL). The compound further showed an IC50 with HepG2 of 63.1 µM. Further, in series [5], the Papp was less than 1 ×10⁻⁶ cm/s.

`CC(C)C[C@@H]1NC(=O)[C@H](Cc2c[nH]c3ccccc23)NC(=O)[C@@H](CCCN)NC(=O)[C@H](CC(N)=O)NC(=O)[C@H](C(C)C)NC(=O)[C@@H](CC(C)C)NC1=O` (HELM PEPTIDE1{[NCCC[C@@H](N[*:1])C(=O)[*:2]].W.L.[dL].V.N}$PEPTIDE1,PEPTIDE1,1:R1-6:R2$$$V2.0) came in with a minimum inhibitory concentration (MIC) in series [1] of 0.6 µM (≈ 0.444 µg/mL). For the same compound, in [10], the solubility kinetic at 1 h was found to be 204 µM (≈ 151 µg/mL). In addition, in series [21], the Papp at 3 h is less than 0.65 ×10⁻⁶ cm/s. Besides, the IC50 in the series with HepG2 came to 50.1 µM; in [8], 1.26 µM. Besides, the CLH is less than 0.5 mL/min/g in series [16] and 0.97 mL/min/g in series [17].
